Measurements published in ChEMBL document CHEMBL3044540, “Synthesis and Fungicidal Activity of New 6-Alkyl-2-alkylamino-4H-1, 3, 2-benzodioxaphosphorin 2-Sulfides” (1998).

What was measured:
Format in all cases: functional
Athelia rolfsii [1] = test: Antifungal activity against Athelia rolfsii assessed as growth inhibition at 100 ppm by agar dilutopn method; conditions: Agroathelia rolfsii; read-out: GI
Athelia rolfsii [2] = test: Antifungal activity against Athelia rolfsii assessed as growth inhibition at 10 ppm by agar dilutopn method; conditions: Agroathelia rolfsii; read-out: GI
Pythium [3] = test: Antifungal activity against Pythium sp. assessed as growth inhibition at 10 ppm by agar dilution method; conditions: read-out: GI
Pythium [4] = test: Antifungal activity against Pythium sp. assessed as growth inhibition at 100 ppm by agar dilution method; conditions: read-out: GI

Compound	inhibition of growth at 100 ppm (Athelia rolfsii [1])	inhibition of growth at 10 ppm (Athelia rolfsii [2])	inhibition of growth at 10 ppm (Pythium [3])	inhibition of growth at 100 ppm (Pythium [4])
CCCCNP1(=S)OCc2cc(CCCC)ccc2O1 (centres undefined)	70%	44%	5%	33%
CCCCNP1(=S)OCc2cc(C(C)CC)ccc2O1 (centres undefined)	63%	39%	4%	11%
CCCNP1(=S)OCc2cc(CCC)ccc2O1 (centres undefined)	92%	63%	66%	87%
CCCCNP1(=S)OCc2cc(C(C)C)ccc2O1 (centres undefined)	70%	56%	29%	49%
CCCCNP1(=S)OCc2cc(CCC)ccc2O1 (centres undefined)	76%	66%	54%	65%
CCC(C)NP1(=S)OCc2cc(C(C)C)ccc2O1 (centres undefined)	68%	34%	11%	43%
CC(C)NP1(=S)OCc2cc(C(C)C)ccc2O1 (centres undefined)	90%	58%	53%	82%
CC(C)OP(=O)(OC(C)C)SCc1ccccc1 [IPROBENFOS]	100%	69%	42%	89%
CCC(C)c1ccc2c(c1)COP(=S)(NC(C)C)O2 (centres undefined)	75%	28%	0%	48%
CCCCc1ccc2c(c1)COP(=S)(NCC(C)C)O2 (centres undefined)	48%	22%	8%	28%
CCCc1ccc2c(c1)COP(=S)(NCC(C)C)O2 (centres undefined)	79%	59%	44%	57%
CC(C)CNP1(=S)OCc2cc(C(C)C)ccc2O1 (centres undefined)	76%	49%	14%	18%
CCCNP1(=S)OCc2cc(C(C)C)ccc2O1 (centres undefined)	90%	58%	57%	75%
CCCCc1ccc2c(c1)COP(=S)(NCCC)O2 (centres undefined)	71%	55%	54%	72%
CCCCc1ccc2c(c1)COP(=S)(NC(C)C)O2 (centres undefined)	59%	42%	54%	57%
CCCNP1(=S)OCc2cc(C(C)CC)ccc2O1 (centres undefined)	77%	48%	14%	48%
CCCc1ccc2c(c1)COP(=S)(NC(C)CC)O2 (centres undefined)	64%	44%	44%	59%
CCC(C)NP1(=S)OCc2cc(C(C)CC)ccc2O1 (centres undefined)	37%	0%	0%	7%
CCCc1ccc2c(c1)COP(=S)(NC(C)C)O2 (centres undefined)	81%	57%	59%	80%
CCC(C)c1ccc2c(c1)COP(=S)(NCC(C)C)O2 (centres undefined)	63%	31%	0%	14%
CCCCc1ccc2c(c1)COP(=S)(NC(C)CC)O2 (centres undefined)	47%	24%	33%	38%
